The supplement of paper PMC4862054

Assays:
Conditions in all cases: incubation time: 72 h
[1] = system: MDA-MB-453; experiment: normalised response (% of control), CellTiter-Glo; higher = more viable cells (100 = DMSO, 0 = benzethonium chloride kill control)
Method in brief: (§1)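 Every value is a normalised signal taken at one concentration of a dilution series. Compound was placed in 384-well plates at 5 concentrations in 10-fold steps over a compound-specific 10,000-fold range, and 20 µl of breast cancer cell suspension was seeded onto it. After 72 h, CellTox Green fluorescence (485/520 nm) was measured first and CellTiter-Glo luminescence second, following 10 min at room temperature. Each plate was scaled to 0.1 % DMSO (100) and a positive kill control (0).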

[2] = system: BT-474; experiment: as above
Method in brief: as §1

[3] = system: HCC1599; experiment: as above
Method in brief: as §1

[4] = system: MDA-MB-436; experiment: as above
Method in brief: as §1

[5] = system: HCC1143; experiment: as above
Method in brief: as §1

[6] = system: MCF-10A; experiment: as above
Method in brief: as §1

[7] = system: SK-BR-3; experiment: as above
Method in brief: as §1

[8] = system: MFM-223; experiment: as above
Method in brief: as §1

[9] = system: Hs578T; experiment: as above
Method in brief: as §1

[10] = system: BT-549; experiment: as above
Method in brief: as §1

[11] = system: MDA-MB-468; experiment: as above
Method in brief: as §1

[12] = system: CAL-85-1; experiment: as above
Method in brief: as §1

[13] = system: CAL-51; experiment: as above
Method in brief: as §1

[14] = system: DU-4475; experiment: as above
Method in brief: as §1

[15] = system: HCC1937; experiment: as above
Method in brief: as §1

[16] = system: HDQ-P1; experiment: as above
Method in brief: as §1

[17] = system: CAL-148; experiment: as above
Method in brief: as §1

[18] = system: CAL-120; experiment: as above
Method in brief: as §1

[19] = system: MDA-MB-231; experiment: as above
Method in brief: as §1

[20] = system: MDA-MB-453; experiment: normalised response (% of control), CellTox Green; higher = less cell death (100 = DMSO, 0 = benzethonium chloride kill control)
Method in brief: as §1

[21] = system: BT-474; experiment: as above
Method in brief: as §1

[22] = system: HCC1599; experiment: as above
Method in brief: as §1

[23] = system: MDA-MB-436; experiment: as above
Method in brief: as §1

[24] = system: HCC1143; experiment: as above
Method in brief: as §1

[25] = system: MCF-10A; experiment: as above
Method in brief: as §1

[26] = system: MFM-223; experiment: as above
Method in brief: as §1

[27] = system: Hs578T; experiment: as above
Method in brief: as §1

[28] = system: BT-549; experiment: as above
Method in brief: as §1

[29] = system: MDA-MB-468; experiment: as above
Method in brief: as §1

[30] = system: CAL-85-1; experiment: as above
Method in brief: as §1

[31] = system: CAL-51; experiment: as above
Method in brief: as §1

[32] = system: DU-4475; experiment: as above
Method in brief: as §1

[33] = system: HCC1937; experiment: as above
Method in brief: as §1

[34] = system: HDQ-P1; experiment: as above
Method in brief: as §1

[35] = system: CAL-148; experiment: as above
Method in brief: as §1

[36] = system: CAL-120; experiment: as above
Method in brief: as §1

[37] = system: MDA-MB-231; experiment: as above
Method in brief: as §1

SMILES	normalised response [1] [%]	normalised response [2] [%]	normalised response [3] [%]	normalised response [4] [%]	normalised response [5] [%]	normalised response [6] [%]	normalised response [7] [%]	normalised response [8] [%]	normalised response [9] [%]	normalised response [10] [%]	normalised response [11] [%]	normalised response [12] [%]	normalised response [13] [%]	normalised response [14] [%]	normalised response [15] [%]	normalised response [16] [%]	normalised response [17] [%]	normalised response [18] [%]	normalised response [19] [%]	normalised response [20] [%]	normalised response [21] [%]	normalised response [22] [%]	normalised response [23] [%]	normalised response [24] [%]	normalised response [25] [%]	normalised response [26] [%]	normalised response [27] [%]	normalised response [28] [%]	normalised response [29] [%]	normalised response [30] [%]	normalised response [31] [%]	normalised response [32] [%]	normalised response [33] [%]	normalised response [34] [%]	normalised response [35] [%]	normalised response [36] [%]	normalised response [37] [%]
Cc1c(Cn2c(C)nc3c(C(=O)O)cc(N4CCOCC4)cc32)cccc1C(F)(F)F (1000 nM)	93.1	96.2	117	99.5	103	115	106	104	103	75.5	80.9	98.1	74.1	95.1	94.4	105	101	99.8	100	112	102	92.3	107	119	110	105	105	111	125	104	100	111	106	115	107	109	107
CCCCC/C=C/C=C1/C(=O)C=C[C@@H]1C/C=C\CCCC(=O)O [15D-PGJ2] (80 nM)	96.8	101	88.8	98.5	104	111	103	99.9	107	99.1	99.2	96.2	123	102	99.1	99.9	102	103	101	113	98.9	109	116	82.5	104	101		105	155	125	113	110	123	111	103	108	86.6
CS(=O)(=O)N1CCN(Cc2cc3nc(-c4cccc5[nH]ncc45)nc(N4CCOCC4)c3s2)CC1 [Pictilisib] (1000 nM)	38.6	69.4	96.1	72.7	68	38.4	40.4	66.5	64.3	58.7	72.9	63.5	57.4	86.5	73.9	47.1	66.3	64.9	70.5	96.7	97.5	103	99.6	62.9	44.2	76.8	108	125	45.4		92.7	98.3	126	87.1	53.4	100	99.3
c1cc(CN2CCCNCCNCCCNCC2)ccc1CN1CCCNCCNCCCNCC1 [Plerixafor] (1000 nM)	80.1	93.7	102	102	97.3	81.8	80	87.3	91.4	105	98.1	96.1	111	92.1	101	101	90.4	111	96.9	99	95.2	88.8			86.6	97.4		107	85	105	89.1	91.8	54.1	58.5	92.3	96.6	82.7
CC(C)N(CCCNC(=O)Nc1ccc(C(C)(C)C)cc1)C[C@H]1O[C@@H](n2cc(Br)c3c(N)ncnc32)[C@H](O)[C@@H]1O [SGC0946] (1 nM)	95.3	93.8	93.8	102	89.9	101	97.5	91.3	96	99.2	97.7	98.4	104	98.5	92.7	94.5	99.5	94.9	93.2																		
CC(C)N(CCCNC(=O)Nc1ccc(C(C)(C)C)cc1)C[C@H]1O[C@@H](n2cc(Br)c3c(N)ncnc32)[C@H](O)[C@@H]1O [SGC0946] (10 nM)	89.4	98.8	93.8	92.3	99.9	97.4	105	96.6	98.1	93.1	86.9	94	108	93.6	89.6	97.2	91.2	92.9	97.5																		
CC(C)N(CCCNC(=O)Nc1ccc(C(C)(C)C)cc1)C[C@H]1O[C@@H](n2cc(Br)c3c(N)ncnc32)[C@H](O)[C@@H]1O [SGC0946] (1000 nM)	104	103	102	93.4	96.5	97.9	95.7	94	103	95.5	86.5	102	118	98.4	97.3	102	91.3	100	92.1	105	97.3	91.8	97.8		107	98.4		99.9	111	96.3	100	95.8	93.1	103		95.7	101
CNC(=O)c1cc(Oc2ccc(NC(=O)Nc3ccc(Cl)c(C(F)(F)F)c3)cc2)ccn1 [Sorafenib] (0.1 nM)	108	105	103	102	99.7	95.7	102	98.8	98.3	104	101	101	118	101	97.7	99.7	106	100	107																		
CCN(CC)CCNC(=O)c1c(C)[nH]c(/C=C2\C(=O)Nc3ccc(F)cc32)c1C [Sunitinib] (0.1 nM)	106	104	94.7	94.9	103	99.3	114	103	93.5	100	103	99.9	81.7	96.1	95.8	98.5	108	105	106																		
CCN(CC)CCNC(=O)c1c(C)[nH]c(/C=C2\C(=O)Nc3ccc(F)cc32)c1C [Sunitinib] (1 nM)	105	109	119	104	103	107	111	105	97.7	95.5	106	99.9	141	99.4	107	97.1	103	107	101																		
CC[C@@]1(O)C(=O)OCc2c1cc1n(c2=O)Cc2cc3c(CN(C)C)c(O)ccc3nc2-1 [Topotecan] (1 nM)	103	93.2	95	99.3	92.8	97.3	99.2	93.7	105	97.3	94.7	95.6	68.1	95.3	97	99.7	97.6	92.5	97.9																		
